Test results taken from ChEMBL document CHEMBL1770115, “Fused heterocyclic M1 positive allosteric modulators” (Bioorg Med Chem Lett, 2011).
The source made the active and inactive calls. No cut-off for these calls is given here.

How the values were obtained:
[1] = molecular target: T1, Muscarinic acetylcholine receptor M1 (Homo sapiens) (UniProt P11229); assay: Positive allosteric modulation of human muscarinic M1 receptor expressed in CHO cells assessed as effect on acetylcholine-induced calcium mobilization by FLIPR assay; format: functional, cell-based
T1 sequence (whole entry): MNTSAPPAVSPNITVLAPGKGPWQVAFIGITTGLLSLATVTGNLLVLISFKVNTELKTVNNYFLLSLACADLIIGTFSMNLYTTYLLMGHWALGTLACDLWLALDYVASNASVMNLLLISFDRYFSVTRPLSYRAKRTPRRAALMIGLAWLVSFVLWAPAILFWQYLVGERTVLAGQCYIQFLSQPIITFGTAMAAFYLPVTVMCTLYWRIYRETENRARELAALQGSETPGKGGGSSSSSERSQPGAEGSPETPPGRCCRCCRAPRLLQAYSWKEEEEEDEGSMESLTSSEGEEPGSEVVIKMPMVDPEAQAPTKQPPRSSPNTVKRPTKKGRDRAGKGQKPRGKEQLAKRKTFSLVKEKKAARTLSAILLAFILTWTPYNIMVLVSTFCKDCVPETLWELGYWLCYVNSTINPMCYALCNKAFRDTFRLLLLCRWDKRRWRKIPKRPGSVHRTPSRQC

[2] = tested on: Cerebrospinal fluid; assay: Drug concentration in Sprague-Dawley rat cerebrospinal fluid at 10 mg/kg, po; format: ADME, organism-based; parameters: dose 10 mg/kg, route oral; conditions: in vivo, read-out: Drug uptake
[3] = tested on: Plasma; assay: Plasma concentration in Sprague-Dawley rat at 10 mg/kg, po; format: ADME, organism-based; parameters: dose 10 mg/kg, route oral; conditions: in vivo
[4] = tested on: Brain; assay: Drug concentration in Sprague-Dawley rat barin at 10 mg/kg, po; format: ADME, organism-based; parameters: dose 10 mg/kg, route oral; conditions: in vivo, read-out: Drug uptake
[5] = Ratio of drug level in brain to plasma in Sprague-Dawley rat at 10 mg/kg, po; format: ADME, organism-based; parameters: dose 10 mg/kg, route oral
[6] = molecular target: T1, Muscarinic acetylcholine receptor M1 (Homo sapiens); assay: Positive allosteric modulation of human muscarinic M1 receptor expressed in CHO cells assessed as potentiation of acetylcholine-induced calcium mobilization at 1 uM by FLIPR assay relative to control; format: functional, cell-based
[7] = molecular target: T1, Muscarinic acetylcholine receptor M1 (Homo sapiens); assay: Agonist activity at human muscarinic M1 receptor expressed in CHO cells assessed as increase of calcium mobilization at 100 uM by FLIPR assay; format: functional, cell-based

SMILES	IP [1] [nM]	further results
O=C(O)c1cn(CC#Cc2ccccc2)c2c(F)cccc2c1=O	3400	
O=C(O)c1cn(Cc2ccc3[nH]ncc3c2)c2cccc(F)c2c1=O	104	
O=C(O)c1cn(C/C=C/c2cccc(F)c2)c2c(F)cccc2c1=O	370	
O=C(O)c1cn(C/C=C/c2ccccc2)c2c(F)cccc2c1=O	270	
Cn1cc2cc(Cn3cc(C(=O)O)c(=O)c4c(F)cccc43)ccc2n1	142	
O=C(O)c1cn(Cc2ccc3[nH]c(=O)[nH]c3c2)c2cccc(F)c2c1=O	617	
COc1ccc(/C=C/Cn2cc(C(=O)O)c(=O)c3cccc(F)c32)cc1	380	
O=C(O)c1cn(C/C=C/c2ccncc2)c2c(F)cccc2c1=O	610	
O=C(O)c1cn(C/C=C/c2ccccn2)c2c(F)cccc2c1=O	5200	
Cc1ccccc1/C=C/Cn1cc(C(=O)O)c(=O)c2cccc(F)c21	> 10000	
CN1CCN(C)c2cc(Cn3cc(C(=O)O)c(=O)c4c(F)cccc43)ccc21	3800	
O=C(O)c1cn(Cc2ccc3c(c2)OCCO3)c2cccc(F)c2c1=O	84	concentration [2]: 119 nM; concentration [3]: 3700 nM; concentration [4]: 577 nM; Kp [5]: 0.15
Cn1ncc2cc(Cn3cc(C(=O)O)c(=O)c4c(F)cccc43)ccc21	72	concentration [2]: 155 nM; concentration [3]: 13200 nM; concentration [4]: 538 nM; Kp [5]: 0.04
O=C(O)c1cn(Cc2ccc3ccccc3c2)c2c(F)cccc2c1=O	80	
O=C(O)c1cn(C/C=C/c2ccc(Cl)cc2)c2c(F)cccc2c1=O	320	
O=C(O)c1cn(Cc2ccc3ncccc3c2)c2cccc(F)c2c1=O	459	
COc1ccccc1/C=C/Cn1cc(C(=O)O)c(=O)c2cccc(F)c21	> 10000	

SMILES	IP [1] [nM]	further results
O=C(O)c1cn(C/C=C/c2ccccc2F)c2c(F)cccc2c1=O	240	
CN1CCCc2cc(Cn3cc(C(=O)O)c(=O)c4c(F)cccc43)ccc21	624	
O=C(O)c1cn(Cc2ccc3ccccc3n2)c2cccc(F)c2c1=O	897	
COc1cccc(/C=C/Cn2cc(C(=O)O)c(=O)c3cccc(F)c32)c1	1400	
O=C(O)c1cn(Cc2ccc3ccccc3c2)c2cccc(F)c2c1=O	69	fold change (FC) [6]: 100; concentration [2]: 18 nM; concentration [3]: 676 nM; concentration [4]: 178 nM; Activity [7]: Active; Kp [5]: 0.26
Cc1ccc(/C=C/Cn2cc(C(=O)O)c(=O)c3cccc(F)c32)cc1	910	
N#Cc1ccc(/C=C/Cn2cc(C(=O)O)c(=O)c3cccc(F)c32)cc1	1000	
CN1CCc2cc(Cn3cc(C(=O)O)c(=O)c4c(F)cccc43)ccc21	> 10000	
Cc1cccc(/C=C/Cn2cc(C(=O)O)c(=O)c3cccc(F)c32)c1	250	
O=C(O)c1cn(Cc2nc3ccccc3s2)c2cccc(F)c2c1=O	1800	
O=C(O)c1cn(Cc2ccc3c(c2)CCC3O)c2cccc(F)c2c1=O (configuration not stated)	97	
O=C(O)c1cn(Cc2ccc3ccccc3c2)c2c(F)ccc(F)c2c1=O	266	
CN(C)c1ccc(/C=C/Cn2cc(C(=O)O)c(=O)c3cccc(F)c32)cc1	860	
O=C(O)c1cn(C/C=C/c2ccc(F)cc2)c2c(F)cccc2c1=O	120	
O=C1Cc2cc(Cn3cc(C(=O)O)c(=O)c4c(F)cccc43)ccc2N1	81	
O=C(O)c1cn(C/C=C/c2cccnc2)c2c(F)cccc2c1=O	> 10000	
